Source: paper PMC4324364 (MedChemComm, 2014)
Where two headings read alike, the source gives them in different places.

How the values were obtained:
[1] = test system: HepG2 cell line; conditions: compound marked as previously reported data; cited from earlier work
[2] = test system: L. major amastigotes; conditions: read-out: L. major Amast EC50, previously reported data; cited from earlier work
[3] = Metabolic stability; conditions: in vitro ADME assays
[4] = test system: HepG2 cell line; test: HepG2 host cell toxicity; type: cell-based, human
[5] = test system: T. brucei; test: T. brucei cell growth inhibition; type: cell-based, Trypanosoma brucei
[6] = test system: T. brucei; conditions: cited from earlier work
[7] = cited from earlier work
[8] = cited from earlier work; remark: listed apart in the source
[9] = test system: P. falciparum (D6 strain); conditions: read-out: P. falciparum D6 EC50, previously reported data; cited from earlier work
[10] = test system: T. cruzi; conditions: read-out: T. cruzi EC50; previously reported data, same assay; cited from earlier work
[11] = test system: L. major promastigotes; conditions: read-out: L. major Promast EC50, previously reported data; cited from earlier work
[12] = test system: T. brucei; conditions: read-out: T. brucei EC50; previously reported data, same assay; cited from earlier work

Fc1cccc(COc2ccc(Nc3ncnc4ccc(-c5ccccc5)cc34)cc2Cl)c1 [4b]
HepG2 TC50 (concentration leading to 50% growth inhibition of host cells) [1]: 4.9 µM
EC50 [2]: > 15 µM

Fc1cccc(COc2ccc(Nc3ncnc4ccc(-c5ccc(CN6CCOCC6)cc5)cc34)cc2Cl)c1 [4j]
HepG2 TC50 (concentration leading to 50% growth inhibition of host cells) [1]: 12.9 µM

Fc1cccc(COc2ccc(Nc3ncnc4ccc(-c5ccc(N6CCOCC6)cc5)cc34)cc2Cl)c1 [4k]
HepG2 TC50 (concentration leading to 50% growth inhibition of host cells) [1]: 9.6 µM
EC50 [2]: > 15 µM

Cc1cc(-c2cc3ncnc(Nc4ccc(OCc5cccc(F)c5)c(Cl)c4)c3s2)cnc1N1CCOCC1 [11e]
metabolic stability [3]: modest

Fc1cccc(COc2ccc(Nc3ncnc4sc(-c5ccccc5)cc34)cc2Cl)c1 [18b]
HepG2 TC50 (concentration leading to 50% growth inhibition of host cells) [4]: 10.0 µM

Fc1cccc(COc2ccc(Nc3ncnc4cc(C#C[C@@H]5CCCN5)sc34)cc2Cl)c1 [GW837016X]
potency against T. brucei (in words) [5]: potent

CS(=O)(=O)CCNCc1ccc(-c2ccc3ncnc(Nc4ccc(OCc5cccc(F)c5)c(Cl)c4)c3c2)o1 [compound 1, lapatinib, reference compound]
cure of infected mice ([6]; murine model of HAT): 25%

Fc1cccc(COc2ccc(Nc3ncnc4ccc(-c5cccc(N6CCOCC6)c5)cc34)cc2Cl)c1 [compound 2]
metabolic stability [3]: modest
plasma protein binding [7]: > 99%
central nervous system exposure [8]: lack of central nervous system exposure
oral bioavailability ([8]; mice): orally bioavailable
EC50 [9]: 0.23 µM
EC50 [10]: 1.8 ± 0.9 µM
EC50 [11]: 2.97 µM
effect on parasitemia and life extension ([6]; murine T. brucei bloodstream infection): modest effect
EC50 [12]: 0.042 ± 0.01 µM
